Experimental data: PMC11183015, “In vivo stable ^211At-labeled prostate-specific membrane antigen-targeted tracer using a neopentyl glycol structure” (EJNMMI Radiopharmacy and Chemistry, 2024)

Legend:
PSMA = PSMA (Homo sapiens, UniProt Q04609); test: Competitive inhibition of [125I]DCIT binding to LNCaP cells; set-up: endogenous in cells; host or cells: LNCaP (human prostate cancer cell line, RIKEN BRC); conditions: competitor [125I]DCIT, 37 °C, 1 h
Experimental: The human prostate cancer cell line LNCaP was provided by RIKEN BioResource Center (BRC) through the National BioResource Project of MEXT/AMED, Japan. LNCaP cells were cultured according to protocols prescribed by RIKEN BRC. LNCaP cells were seeded in 24-well plates (~ 1.5 × 10^5 cells/500 µL/well) coated with 0.01% poly-L-lysine (Sigma-Aldrich, Tokyo). After washing twice with assay medium (RPMI 1640 supplemented with 0.5% BSA), 250 µL of assay medium was added to each well. Each PSMA derivative and [^125I]DCIT dissolved in assay medium (250 µL) were added to the well, and the plates were then incubated at 37 °C for 1 h. After removing the assay medium, the cells were washed twice with assay medium (250 µL × 2). All cells were lysed with 1 M NaOH (500 µL), and the solution was collected. The cells were washed twice with PBS (250 µL × 2), and the solution was mixed with the previous solution. The radioactivity in the solution was measured using an auto-well gamma counter. The IC50 value was calculated by fitting with nonlinear regression using GraphPad Prism 8.4.3 (GraphPad Software, Inc., San Diego).

LNCaP cell xenografts = test: Biodistribution of radioactivity in tumor-bearing mice; type: in vivo, mouse; conditions: LNCaP tumor-bearing BALB/c-nu/nu mice
Experimental: Animal studies were conducted in accordance with the institutional guidelines approved by the Chiba University Animal Care Committee (Permit No. 4–183). Five-week-old male ddY mice and BALB/c-nu/nu mice were purchased from Japan SLC Inc. (Hamamatsu, Japan). LNCaP cells (5.0 × 10^6 cells) were suspended in 100 μL of PBS and Matrigel (BD Biosciences, Franklin Lakes, NJ, USA) in a 1:1 ratio. Tumor xenograft models were prepared via subcutaneous injection of this LNCaP cell suspension into BALB/c nude mice.
Biodistribution studies were conducted using male BALB/c-nu/nu mice bearing LNCaP cell xenografts at 1 and 3 h postinjection of [^211At]At-NpG-D-PSMA (100 µL, 37 kBq) and 1 and 6 h postinjection of ^125I-labeled PSMA derivative (100 µL, 11.1 kBq). In the blocking study, [^125I]I-NpG-D-PSMA was coinjected with 2-PMPA (50 mg/kg weight) into tumor-bearing mice via the tail vein. At 1 h postinjection, the mice were sacrificed. The tissues of interest were excised and weighed, and the radioactivity counts in each tissue were determined using an auto-well gamma counter. Each value was expressed as the mean percent injected dose/g tissue ± SD for a group of 3–5 animals, except those for the stomach, intestine, and thyroid.

[1] = Biodistribution of radioactivity in normal mice; type: in vivo, mouse; conditions: normal ddY mice, i.v.
Experimental: Six-week-old male ddY mice were injected via the tail vein with each radiolabeled PSMA derivative. Animals were sacrificed and the organs were dissected at 10 min, 1 h, 3 h, and 6 h after injection. Metabolic cages were used for housing normal mice. The tissues of interest were excised and weighed, and the radioactivity counts in each tissue were determined using an auto-well gamma counter. Each value was expressed as the mean percent injected dose/g tissue ± SD for a group of 3–5 animals, except those for the stomach, intestine, and thyroid.

PSMA, sequence (Q04609 whole entry): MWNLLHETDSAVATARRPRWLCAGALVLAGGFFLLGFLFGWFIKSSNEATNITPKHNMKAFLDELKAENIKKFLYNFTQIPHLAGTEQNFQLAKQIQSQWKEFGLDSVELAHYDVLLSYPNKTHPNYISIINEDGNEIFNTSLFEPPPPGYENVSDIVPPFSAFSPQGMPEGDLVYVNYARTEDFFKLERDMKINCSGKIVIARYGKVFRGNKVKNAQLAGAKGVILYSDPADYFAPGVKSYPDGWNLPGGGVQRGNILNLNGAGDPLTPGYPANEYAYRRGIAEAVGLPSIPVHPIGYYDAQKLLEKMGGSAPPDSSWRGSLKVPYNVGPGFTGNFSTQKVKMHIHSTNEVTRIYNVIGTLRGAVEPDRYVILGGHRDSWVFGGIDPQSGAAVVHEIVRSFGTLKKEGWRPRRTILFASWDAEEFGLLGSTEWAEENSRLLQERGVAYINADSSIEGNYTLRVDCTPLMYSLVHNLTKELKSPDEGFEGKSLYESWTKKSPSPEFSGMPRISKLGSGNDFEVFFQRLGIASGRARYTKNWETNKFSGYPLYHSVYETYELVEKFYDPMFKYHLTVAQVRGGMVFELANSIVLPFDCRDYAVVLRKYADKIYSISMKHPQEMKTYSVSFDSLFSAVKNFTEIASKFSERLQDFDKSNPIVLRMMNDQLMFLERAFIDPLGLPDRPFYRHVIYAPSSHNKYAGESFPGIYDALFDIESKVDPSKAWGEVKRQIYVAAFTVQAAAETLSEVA

SMILES: O=C(O)CCC(NC(=O)NC(CCCCNC(=O)C(Cc1ccc2ccccc2c1)NC(=O)C(CCC(=O)O)NC(=O)C(CCC(=O)O)NC(=O)COCC(CO)(CO)CI)C(=O)O)C(=O)O [I-NpG-D-PSMA]
- IC50 (PSMA): 6.06 nM

SMILES: O=C(O)CCC(NC(=O)NC(CCCCNC(=O)C(Cc1ccc2ccccc2c1)NC(=O)C(CCC(=O)O)NC(=O)C(CCC(=O)O)NC(=O)COCC(CO)(CO)CI)C(=O)O)C(=O)O [I-NpG-L-PSMA]
- IC50 (PSMA): 4.04 nM

SMILES: O=C(O)CCC(NC(=O)NC(CCCCNC(=O)C(Cc1ccc2ccccc2c1)NC(=O)C(CCC(=O)O)NC(=O)C(CCC(=O)O)NC(=O)COCC(CO)(CO)C[211At])C(=O)O)C(=O)O [[^211At]At-NpG-D-PSMA]
- Radioactivity in Blood (LNCaP cell xenografts; 1 h): 0.41 ± 0.10 %ID/g
- Radioactivity in Bone (LNCaP cell xenografts; 1 h): 0.40 ± 0.22 %ID/g
- Radioactivity in Heart (LNCaP cell xenografts; 1 h): 0.65 ± 0.22 %ID/g
- Radioactivity in Intestine (LNCaP cell xenografts; 1 h): 1.94 ± 0.22 %ID
- Radioactivity in Kidney (LNCaP cell xenografts; 1 h): 181 ± 13.5 %ID/g
- Radioactivity in Liver (LNCaP cell xenografts; 1 h): 0.38 ± 0.08 %ID/g
- Radioactivity in Lung (LNCaP cell xenografts; 1 h): 1.84 ± 0.22 %ID/g
- Radioactivity in Muscle (LNCaP cell xenografts; 1 h): 0.30 ± 0.12 %ID/g
- Radioactivity in Neck (LNCaP cell xenografts; 1 h): 0.04 ± 0.03 %ID
- Radioactivity in Pancreas (LNCaP cell xenografts; 1 h): 0.95 ± 0.48 %ID/g
- Radioactivity in Spleen (LNCaP cell xenografts; 1 h): 11.8 ± 1.26 %ID/g
- Radioactivity in Stomach (LNCaP cell xenografts; 1 h): 0.37 ± 0.15 %ID
- Radioactivity in Tumor (LNCaP cell xenografts; 1 h): 13.4 ± 3.17 %ID/g
- Radioactivity in Blood (LNCaP cell xenografts; 3 h): 0.09 ± 0.02 %ID/g
- Radioactivity in Bone (LNCaP cell xenografts; 3 h): 0.29 ± 0.18 %ID/g
- Radioactivity in Heart (LNCaP cell xenografts; 3 h): 0.23 ± 0.08 %ID/g
- Radioactivity in Intestine (LNCaP cell xenografts; 3 h): 1.74 ± 0.39 %ID
- Radioactivity in Kidney (LNCaP cell xenografts; 3 h): 132 ± 37.8 %ID/g
- Radioactivity in Liver (LNCaP cell xenografts; 3 h): 0.11 ± 0.04 %ID/g
- Radioactivity in Lung (LNCaP cell xenografts; 3 h): 0.55 ± 0.06 %ID/g
- Radioactivity in Muscle (LNCaP cell xenografts; 3 h): 0.13 ± 0.09 %ID/g
- Radioactivity in Neck (LNCaP cell xenografts; 3 h): 0.05 ± 0.04 %ID
- Radioactivity in Pancreas (LNCaP cell xenografts; 3 h): 0.27 ± 0.05 %ID/g
- Radioactivity in Spleen (LNCaP cell xenografts; 3 h): 4.67 ± 3.27 %ID/g
- Radioactivity in Stomach (LNCaP cell xenografts; 3 h): 0.55 ± 0.33 %ID
- Radioactivity in Tumor (LNCaP cell xenografts; 3 h): 16.9 ± 8.45 %ID/g

SMILES: O=C([O-])CN1CCN(CC(=O)[O-])CCN(CC(=O)NC[C@H]2CC[C@H](C(=O)N[C@@H](Cc3ccc4ccccc4c3)C(=O)NCCCC[C@H](NC(=O)N[C@@H](CCC(=O)O)C(=O)O)C(=O)O)CC2)CCN(CC(=O)[O-])CC1.[Ga+3] [Ga-PSMA-617, reference compound]
- IC50 (PSMA): 7.56 nM

SMILES: O=C([O-])CN1CCN(CC(=O)[O-])CCN(CC(=O)NC[C@H]2CC[C@H](C(=O)N[C@@H](Cc3ccc4ccccc4c3)C(=O)NCCCC[C@H](NC(=O)N[C@@H](CCC(=O)O)C(=O)O)C(=O)O)CC2)CCN(CC(=O)[O-])CC1.[67Ga+3] [[^67Ga]Ga-PSMA-617, reference compound]
- Radioactivity in Blood ([1]; 10 min): 3.84 ± 0.55 %ID/g
- Radioactivity in Bone ([1]; 10 min): 1.54 ± 0.19 %ID/g
- Radioactivity in Heart ([1]; 10 min): 1.51 ± 0.13 %ID/g
- Radioactivity in Intestine ([1]; 10 min): 1.58 ± 0.17 %ID
- Radioactivity in Kidney ([1]; 10 min): 82.9 ± 12.2 %ID/g
- Radioactivity in Liver ([1]; 10 min): 0.98 ± 0.13 %ID/g
- Radioactivity in Lung ([1]; 10 min): 3.52 ± 0.29 %ID/g
- Radioactivity in Muscle ([1]; 10 min): 1.34 ± 0.18 %ID/g
- Radioactivity in Neck ([1]; 10 min): 0.03 ± 0.01 %ID
- Radioactivity in Pancreas ([1]; 10 min): 1.20 ± 0.22 %ID/g
- Radioactivity in Spleen ([1]; 10 min): 1.76 ± 0.68 %ID/g
- Radioactivity in Stomach ([1]; 10 min): 0.32 ± 0.03 %ID
- Radioactivity in Blood ([1]; 1 h): 0.26 ±0.15 %ID/g
- Radioactivity in Bone ([1]; 1 h): 0.20 ± 0.09 %ID/g
- Radioactivity in Intestine ([1]; 1 h): 0.83 ± 0.25 %ID
- Radioactivity in Kidney ([1]; 1 h): 11.1 ± 3.22 %ID/g
- Radioactivity in Liver ([1]; 1 h): 0.15 ± 0.03 %ID/g
- Radioactivity in Lung ([1]; 1 h): 0.26 ± 0.12 %ID/g
- Radioactivity in Muscle ([1]; 1 h): 0.15 ± 0.07 %ID/g
- Radioactivity in Neck ([1]; 1 h): 0.01 ± 0.01 %ID
- Radioactivity in Pancreas ([1]; 1 h): 0.11 ± 0.04 %ID/g
- Radioactivity in Spleen ([1]; 1 h): 0.12 ± 0.08 %ID/g
- Radioactivity in Stomach ([1]; 1 h): 0.57 ± 0.31 %ID
- Radioactivity in Heart ([1]; 3 h): 0.02 ± 0.03 %ID/g
- Radioactivity in Intestine ([1]; 3 h): 0.21 ± 0.09 %ID
- Radioactivity in Kidney ([1]; 3 h): 1.12 ± 0.34 %ID/g
- Radioactivity in Liver ([1]; 3 h): 0.06 ± 0.00 %ID/g
- Radioactivity in Lung ([1]; 3 h): 0.03 ± 0.02 %ID/g
- Radioactivity in Muscle ([1]; 3 h): 0.02 ± 0.02 %ID/g
- Radioactivity in Neck ([1]; 3 h): 0.00 ± 0.00 %ID
- Radioactivity in Stomach ([1]; 3 h): 0.03 ± 0.02 %ID
- Radioactivity in Intestine ([1]; 6 h): 0.34 ± 0.17 %ID
- Radioactivity in Kidney ([1]; 6 h): 1.06 ± 0.42 %ID/g
- Radioactivity in Liver ([1]; 6 h): 0.05 ±0.01 %ID/g
- Radioactivity in Lung ([1]; 6 h): 0.02 ± 0.02 %ID/g
- Radioactivity in Muscle ([1]; 6 h): 0.02 ± 0.02 %ID/g
- Radioactivity in Neck ([1]; 6 h): 0.00 ± 0.00 %ID
- Radioactivity in Stomach ([1]; 6 h): 0.05 ± 0.03 %ID
- Radioactivity in Feces ([1]; 6 h, metabolic cages): 0.19 ± 0.12 %ID
- Radioactivity in Urine ([1]; 6 h, metabolic cages): 66.7 ± 15.8 %ID
